Source: patent publication US7118895B2, “Process for producing aglycon by using diglycosidase and flavor-improved food containing the aglycon and converting agent to be used in the process” (Amano Enzyme Inc., priority 2000, dated 2006)

Tested on: Crude diglycosidase
Experiment: Examination of pH in the conversion into isoflavone aglycons by diglycosidase using soybean materials
Assay type: biochemical, Penicillium multicolor IAM7153
Parameters: Decomposition efficiency of genistin family in soymilk / Decomposition efficiency of genistin family in defatted soybean / Decomposition efficiency of daidzin family in defatted soybean: concentration or dose not given beside the values
Settings: for Decomposition efficiency of genistin family in roasted soy flour: 55° C.
Outline: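 Conversion of glycosides to isoflavone aglycons was followed by HPLC after crude diglycosidase (1.88 AU/mL enzyme solution) acted at 55° C for up to 6 h on four soy materials, 50 mg each, held at pH 2–11.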

[1] = pH4.8, heat treatment of enzyme: yes, reaction time 6 h
[2] = pH6.6, heat treatment of enzyme: no, reaction time 0 h
[3] = pH6.6, heat treatment of enzyme: no, reaction time 1 h
[4] = pH6.6, heat treatment of enzyme: no, reaction time 3 h
[5] = pH6.6, heat treatment of enzyme: no, reaction time 6 h
[6] = pH6.6, heat treatment of enzyme: yes, reaction time 6 h

Compound: O=C(O)CC(=O)OC[C@H]1O[C@@H](Oc2cc(O)c3c(=O)c(-c4ccc(O)cc4)coc3c2)[C@H](O)[C@@H](O)[C@@H]1O [malonylgenistin, 6″-O-malonylgenistin]
- Decomposition efficiency of genistin family in soymilk (pH4.8, heat treatment of enzyme: no, reaction time 6 h): 11.3%
- Decomposition efficiency of genistin family in defatted soybean [1]: 41.7%
- Decomposition efficiency of genistin family in soymilk [1]: 51.9%
- Decomposition efficiency of genistin family in roasted soy flour (pH5, heat treatment of enzyme no, reaction time 0 h): not detected
- Decomposition efficiency of genistin family in roasted soy flour (pH5, heat treatment of enzyme no, reaction time 1 h): not detected
- Decomposition efficiency of genistin family in roasted soy flour (pH5, heat treatment of enzyme no, reaction time 3 h): not detected
- Decomposition efficiency of genistin family in roasted soy flour (pH5, heat treatment of enzyme no, reaction time 6 h): not detected
- Decomposition efficiency of genistin family in roasted soy flour (pH5, heat treatment of enzyme yes, reaction time 6 h): not detected
- Decomposition efficiency of genistin family in concentrated soybean protein (pH5.1, heat treatment of enzyme: no, reaction time 0 h): not detected
- Decomposition efficiency of genistin family in concentrated soybean protein (pH5.1, heat treatment of enzyme: no, reaction time 1 h): not detected
- Decomposition efficiency of genistin family in concentrated soybean protein (pH5.1, heat treatment of enzyme: no, reaction time 3 h): not detected
- Decomposition efficiency of genistin family in concentrated soybean protein (pH5.1, heat treatment of enzyme: no, reaction time 6 h): not detected
- Decomposition efficiency of genistin family in concentrated soybean protein (pH5.1, heat treatment of enzyme: yes, reaction time 6 h): not detected
- Decomposition efficiency of genistin family in defatted soybean (pH5.4, heat treatment of enzyme: no, reaction time 0 h): 43.2%
- Decomposition efficiency of genistin family in defatted soybean (pH5.4, heat treatment of enzyme: no, reaction time 1 h): 48.0%
- Decomposition efficiency of genistin family in defatted soybean (pH5.4, heat treatment of enzyme: no, reaction time 3 h): 44.6%
- Decomposition efficiency of genistin family in defatted soybean (pH5.4, heat treatment of enzyme: no, reaction time 6 h): 39.7%
- Decomposition efficiency of genistin family in defatted soybean (pH5.4, heat treatment of enzyme: yes, reaction time 6 h): 45.8%
- Decomposition efficiency of genistin family in soymilk (pH6.2, heat treatment of enzyme: no, reaction time 0 h): 58.6%
- Decomposition efficiency of genistin family in soymilk (pH6.2, heat treatment of enzyme: no, reaction time 1 h): 52.6%
- Decomposition efficiency of genistin family in soymilk (pH6.2, heat treatment of enzyme: no, reaction time 3 h): 41.2%
- Decomposition efficiency of genistin family in soymilk (pH6.2, heat treatment of enzyme: no, reaction time 6 h): 35.8%
- Decomposition efficiency of genistin family in soymilk (pH6.2, heat treatment of enzyme: yes, reaction time 6 h): 51.5%
- Decomposition efficiency of genistin family in roasted soy flour (pH6.5, heat treatment of enzyme no, reaction time 0 h): not detected
- Decomposition efficiency of genistin family in roasted soy flour (pH6.5, heat treatment of enzyme no, reaction time 1 h): not detected
- Decomposition efficiency of genistin family in roasted soy flour (pH6.5, heat treatment of enzyme no, reaction time 3 h): not detected
- Decomposition efficiency of genistin family in roasted soy flour (pH6.5, heat treatment of enzyme no, reaction time 6 h): not detected
- Decomposition efficiency of genistin family in roasted soy flour (pH6.5, heat treatment of enzyme yes, reaction time 6 h): not detected
- Decomposition efficiency of genistin family in concentrated soybean protein [2]: not detected
- Decomposition efficiency of genistin family in defatted soybean [2]: 47.1%
- Decomposition efficiency of genistin family in concentrated soybean protein [3]: not detected
- Decomposition efficiency of genistin family in defatted soybean [3]: 50.1%
- Decomposition efficiency of genistin family in concentrated soybean protein [4]: not detected
- Decomposition efficiency of genistin family in defatted soybean [4]: 48.3%
- Decomposition efficiency of genistin family in concentrated soybean protein [5]: not detected
- Decomposition efficiency of genistin family in defatted soybean [5]: 46.1%
- Decomposition efficiency of genistin family in concentrated soybean protein [6]: not detected
- Decomposition efficiency of genistin family in defatted soybean [6]: 45.7%
- Decomposition efficiency of genistin family in soymilk (pH7.2, heat treatment of enzyme: no, reaction time 0 h): 57.0%
- Decomposition efficiency of genistin family in soymilk (pH7.2, heat treatment of enzyme: no, reaction time 1 h): 56.9%
- Decomposition efficiency of genistin family in soymilk (pH7.2, heat treatment of enzyme: no, reaction time 3 h): 51.5%
- Decomposition efficiency of genistin family in soymilk (pH7.2, heat treatment of enzyme: no, reaction time 6 h): 46.4%
- Decomposition efficiency of genistin family in soymilk (pH7.2, heat treatment of enzyme: yes, reaction time 6 h): 51.1%
- Decomposition efficiency of genistin family in defatted soybean (pH7.8, heat treatment of enzyme: no, reaction time 0 h): 45.8%
- Decomposition efficiency of genistin family in defatted soybean (pH7.8, heat treatment of enzyme: no, reaction time 1 h): 46.6%
- Decomposition efficiency of genistin family in defatted soybean (pH7.8, heat treatment of enzyme: no, reaction time 3 h): 44.4%
- Decomposition efficiency of genistin family in defatted soybean (pH7.8, heat treatment of enzyme: no, reaction time 6 h): 42.2%
- Decomposition efficiency of genistin family in defatted soybean (pH7.8, heat treatment of enzyme: yes, reaction time 6 h): 39.9%
- Decomposition efficiency of genistin family in roasted soy flour (pH8.5, heat treatment of enzyme no, reaction time 0 h): not detected
- Decomposition efficiency of genistin family in roasted soy flour (pH8.5, heat treatment of enzyme no, reaction time 1 h): not detected
- Decomposition efficiency of genistin family in roasted soy flour (pH8.5, heat treatment of enzyme no, reaction time 3 h): not detected
- Decomposition efficiency of genistin family in roasted soy flour (pH8.5, heat treatment of enzyme no, reaction time 6 h): not detected
- Decomposition efficiency of genistin family in roasted soy flour (pH8.5, heat treatment of enzyme yes, reaction time 6 h): not detected
- Decomposition efficiency of genistin family in concentrated soybean protein (pH8.6, heat treatment of enzyme: no, reaction time 0 h): not detected
- Decomposition efficiency of genistin family in concentrated soybean protein (pH8.6, heat treatment of enzyme: no, reaction time 1 h): not detected
- Decomposition efficiency of genistin family in concentrated soybean protein (pH8.6, heat treatment of enzyme: no, reaction time 3 h): not detected
- Decomposition efficiency of genistin family in concentrated soybean protein (pH8.6, heat treatment of enzyme: no, reaction time 6 h): not detected
- Decomposition efficiency of genistin family in concentrated soybean protein (pH8.6, heat treatment of enzyme: yes, reaction time 6 h): not detected
- Decomposition efficiency of genistin family in soymilk (pH11.6, heat treatment of enzyme: no, reaction time 0 h): 54.2%
- Decomposition efficiency of genistin family in soymilk (pH11.6, heat treatment of enzyme: no, reaction time 1 h): 57.7%
- Decomposition efficiency of genistin family in soymilk (pH11.6, heat treatment of enzyme: no, reaction time 3 h): 52.6%
- Decomposition efficiency of genistin family in soymilk (pH11.6, heat treatment of enzyme: no, reaction time 6 h): 49.5%
- Decomposition efficiency of genistin family in soymilk (pH11.6, heat treatment of enzyme: yes, reaction time 6 h): 47.7%
